Where two headings read alike, the source gives them in different places. Positions of bridges follow the written chain, without caps; N, C: chain ends. Non-standard residues stand in square brackets, D forms with d. Residues, ends and D or L forms follow the SMILES beside them. Trp(1-Me) = Cn1cc(C[C@H](N)C(=O)O)c2ccccc21; Phe(4-I) = N[C@@H](Cc1ccc(I)cc1)C(=O)O; 1Nal = N[C@@H](Cc1cccc2ccccc12)C(=O)O
What was measured:
Assay in all cases: cell-based
[1] = molecular target: hNav1.5 (Homo sapiens, UniProt Q14524)
Sequence of hNav1.5 (Q14524 whole entry, looked up): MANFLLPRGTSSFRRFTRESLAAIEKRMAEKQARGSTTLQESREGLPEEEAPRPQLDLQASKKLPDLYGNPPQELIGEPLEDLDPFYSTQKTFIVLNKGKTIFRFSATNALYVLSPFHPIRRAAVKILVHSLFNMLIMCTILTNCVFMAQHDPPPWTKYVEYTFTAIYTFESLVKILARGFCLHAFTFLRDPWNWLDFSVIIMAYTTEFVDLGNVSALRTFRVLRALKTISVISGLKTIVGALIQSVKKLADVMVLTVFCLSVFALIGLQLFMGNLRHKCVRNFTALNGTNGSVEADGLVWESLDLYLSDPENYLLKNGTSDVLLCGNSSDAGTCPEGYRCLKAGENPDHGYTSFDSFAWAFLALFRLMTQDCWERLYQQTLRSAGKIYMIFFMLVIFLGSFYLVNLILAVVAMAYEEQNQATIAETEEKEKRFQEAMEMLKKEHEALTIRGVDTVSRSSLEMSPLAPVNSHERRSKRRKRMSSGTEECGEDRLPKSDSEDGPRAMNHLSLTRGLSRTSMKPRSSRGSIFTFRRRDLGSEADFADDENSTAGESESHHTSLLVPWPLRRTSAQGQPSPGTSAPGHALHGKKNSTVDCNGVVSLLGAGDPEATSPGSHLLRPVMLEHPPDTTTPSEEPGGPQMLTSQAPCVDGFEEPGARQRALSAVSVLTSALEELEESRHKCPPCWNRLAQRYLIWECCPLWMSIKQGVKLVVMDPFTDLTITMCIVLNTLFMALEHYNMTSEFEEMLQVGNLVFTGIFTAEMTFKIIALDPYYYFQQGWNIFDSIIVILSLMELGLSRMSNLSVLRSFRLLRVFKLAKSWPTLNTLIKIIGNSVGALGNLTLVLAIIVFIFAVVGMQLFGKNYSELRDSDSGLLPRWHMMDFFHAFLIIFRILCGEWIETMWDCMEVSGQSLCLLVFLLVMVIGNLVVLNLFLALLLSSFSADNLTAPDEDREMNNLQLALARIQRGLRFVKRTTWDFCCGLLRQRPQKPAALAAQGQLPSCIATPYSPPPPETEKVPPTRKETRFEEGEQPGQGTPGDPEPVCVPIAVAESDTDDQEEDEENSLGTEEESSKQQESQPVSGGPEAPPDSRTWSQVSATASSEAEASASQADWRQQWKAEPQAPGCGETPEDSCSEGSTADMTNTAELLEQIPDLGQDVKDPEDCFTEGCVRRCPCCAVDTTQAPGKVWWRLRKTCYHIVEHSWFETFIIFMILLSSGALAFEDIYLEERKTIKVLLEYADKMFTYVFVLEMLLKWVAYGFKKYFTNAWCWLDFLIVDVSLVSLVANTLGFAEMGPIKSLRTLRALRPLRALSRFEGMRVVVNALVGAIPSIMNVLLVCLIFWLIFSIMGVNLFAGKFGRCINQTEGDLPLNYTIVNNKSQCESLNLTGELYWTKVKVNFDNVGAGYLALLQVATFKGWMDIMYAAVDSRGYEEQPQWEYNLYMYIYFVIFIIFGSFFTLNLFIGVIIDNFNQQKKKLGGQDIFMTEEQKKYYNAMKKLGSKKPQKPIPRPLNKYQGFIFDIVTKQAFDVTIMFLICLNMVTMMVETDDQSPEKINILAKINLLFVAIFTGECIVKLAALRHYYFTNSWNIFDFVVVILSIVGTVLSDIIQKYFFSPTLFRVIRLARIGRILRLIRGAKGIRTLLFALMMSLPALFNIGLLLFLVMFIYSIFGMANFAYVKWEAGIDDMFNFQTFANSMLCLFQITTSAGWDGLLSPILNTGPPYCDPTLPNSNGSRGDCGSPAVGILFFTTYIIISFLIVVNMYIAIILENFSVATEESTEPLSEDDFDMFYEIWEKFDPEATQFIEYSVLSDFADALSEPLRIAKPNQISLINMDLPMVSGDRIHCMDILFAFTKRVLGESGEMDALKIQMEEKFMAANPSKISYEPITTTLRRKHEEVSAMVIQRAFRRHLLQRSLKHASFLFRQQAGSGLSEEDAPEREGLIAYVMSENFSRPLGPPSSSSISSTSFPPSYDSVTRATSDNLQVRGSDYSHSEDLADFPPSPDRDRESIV

[2] = molecular target: hNav1.7 (Homo sapiens, UniProt Q15858); format: cell-based; settings: IonWorks Quattro, read-out: IWQ Use Nav1.7
Sequence of hNav1.7 (Q15858 whole entry, looked up): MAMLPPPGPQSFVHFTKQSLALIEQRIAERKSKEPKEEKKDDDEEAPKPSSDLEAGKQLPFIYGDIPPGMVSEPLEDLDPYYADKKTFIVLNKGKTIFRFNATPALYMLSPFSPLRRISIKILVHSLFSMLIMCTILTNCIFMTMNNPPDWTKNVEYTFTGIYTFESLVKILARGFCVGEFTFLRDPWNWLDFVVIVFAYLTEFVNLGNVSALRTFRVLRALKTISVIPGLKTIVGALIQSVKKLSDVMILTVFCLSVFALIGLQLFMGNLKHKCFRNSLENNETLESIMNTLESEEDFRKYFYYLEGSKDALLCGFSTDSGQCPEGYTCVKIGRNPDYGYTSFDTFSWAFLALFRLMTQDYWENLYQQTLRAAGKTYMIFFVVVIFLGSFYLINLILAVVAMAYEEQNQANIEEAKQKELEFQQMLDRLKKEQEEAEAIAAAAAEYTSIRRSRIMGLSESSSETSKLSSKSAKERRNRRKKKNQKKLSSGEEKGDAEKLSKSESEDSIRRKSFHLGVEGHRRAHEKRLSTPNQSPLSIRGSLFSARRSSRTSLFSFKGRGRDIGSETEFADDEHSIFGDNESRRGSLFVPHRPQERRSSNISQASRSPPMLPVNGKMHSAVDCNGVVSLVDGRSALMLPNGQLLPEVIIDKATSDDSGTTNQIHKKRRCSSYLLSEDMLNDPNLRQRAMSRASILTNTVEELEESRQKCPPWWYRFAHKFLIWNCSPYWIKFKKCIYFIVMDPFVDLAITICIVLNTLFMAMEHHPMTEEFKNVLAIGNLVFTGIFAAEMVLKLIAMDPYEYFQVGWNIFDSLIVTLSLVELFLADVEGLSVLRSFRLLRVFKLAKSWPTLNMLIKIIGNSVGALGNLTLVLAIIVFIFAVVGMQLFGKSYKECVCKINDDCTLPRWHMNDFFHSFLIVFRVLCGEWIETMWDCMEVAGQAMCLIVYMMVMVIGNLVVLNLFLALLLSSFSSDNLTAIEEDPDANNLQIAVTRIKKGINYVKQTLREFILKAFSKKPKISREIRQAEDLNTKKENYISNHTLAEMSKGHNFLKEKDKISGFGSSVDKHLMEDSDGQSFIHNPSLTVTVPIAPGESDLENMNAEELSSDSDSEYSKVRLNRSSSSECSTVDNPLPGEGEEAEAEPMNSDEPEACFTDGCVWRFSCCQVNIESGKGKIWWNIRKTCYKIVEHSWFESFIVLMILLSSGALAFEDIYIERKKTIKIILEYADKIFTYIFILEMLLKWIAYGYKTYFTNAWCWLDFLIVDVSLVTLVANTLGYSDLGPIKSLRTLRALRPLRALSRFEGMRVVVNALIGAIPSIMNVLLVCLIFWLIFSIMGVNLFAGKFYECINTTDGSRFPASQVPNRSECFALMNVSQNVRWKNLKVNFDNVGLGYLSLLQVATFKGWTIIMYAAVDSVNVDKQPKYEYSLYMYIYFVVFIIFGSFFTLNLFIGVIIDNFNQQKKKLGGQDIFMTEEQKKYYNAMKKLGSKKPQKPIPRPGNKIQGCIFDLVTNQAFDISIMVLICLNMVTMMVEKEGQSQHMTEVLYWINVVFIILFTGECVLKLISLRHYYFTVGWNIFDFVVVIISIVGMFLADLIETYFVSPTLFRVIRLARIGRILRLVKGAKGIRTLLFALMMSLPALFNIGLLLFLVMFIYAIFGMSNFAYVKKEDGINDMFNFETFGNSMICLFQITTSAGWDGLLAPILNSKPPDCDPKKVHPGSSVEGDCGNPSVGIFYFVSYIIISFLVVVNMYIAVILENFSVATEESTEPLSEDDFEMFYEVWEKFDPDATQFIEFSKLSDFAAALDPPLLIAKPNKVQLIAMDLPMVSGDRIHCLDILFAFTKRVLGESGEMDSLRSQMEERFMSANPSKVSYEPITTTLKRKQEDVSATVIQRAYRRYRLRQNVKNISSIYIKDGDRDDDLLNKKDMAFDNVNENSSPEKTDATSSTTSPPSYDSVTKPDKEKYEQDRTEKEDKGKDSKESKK

[3] = molecular target: hNav1.3 (Homo sapiens, UniProt Q9NY46); settings: IonWorks Quattro, read-out: IWQ Use Nav1.3
[4] = Table 26, IonWorks Quattro, use, […], read-out: IWQ Use Nav1.5
[5] = IonWorks Quattro, use-dependent block, hNav1.5, read-out: IWQ Use Nav1.5

| SMILES | IC50 [1, 4] [µM] | IC50 ([2]; Table 26, use, […]) [nM] | IC50 ([3]; Table 26, use, […]) [nM] | IC50 [1, 5] [µM] | IC50 ([2]; use-dependent block, hNav1.7) [nM] | IC50 ([3]; use-dependent block, hNav1.3) [nM] | IC50 ([1]; IWQ Use Nav1.5 (μM)) [µM] |
| --- | --- | --- | --- | --- | --- | --- | --- |
| CC[C@H](C)[C@@H]1NC(=O)[C@@H]2CSSC[C@@H]3NC(=O)[C@H](C(C)C)NC(=O)[C@H](CC(C)C)NC(=O)[C@H](CC(N)=O)NC(=O)[C@@H]4CCCN4C(=O)[C@H](CCCNC(=N)N)NC(=O)[C@H](CSSC[C@H](NC(=O)[C@@H](N)CC(=O)O)C(=O)N[C@@H](CC(C)C)C(=O)NCC(=O)N[C@@H](Cc4ccccc4)C(=O)N[C@@H](CCSC)C(=O)N[C@@H](CCCNC(=N)N)C(=O)N[C@@H](CCCCN)C(=O)N2)NC(=O)[C@H](CSSC[C@@H](C(=O)N[C@@H](CCCCN)C(=O)N[C@@H](Cc2ccc(O)cc2)C(=O)N[C@@H](Cc2ccc(I)cc2)C(=O)N[C@@H](Cc2ccccc2)C(N)=O)NC(=O)[C@H](Cc2c[nH]c4ccccc24)NC(=O)[C@H](CCCCN)NC(=O)[C@H](Cc2c[nH]cn2)NC(=O)[C@H]([C@@H](C)O)NC(=O)[C@H](CCCNC(=N)N)NC(=O)[C@H](CO)NC3=O)NC(=O)[C@H](CCCCN)NC(=O)[C@H](CC(=O)O)NC(=O)[C@H](CC(N)=O)NC(=O)[C@H](CC(=O)O)NC(=O)[C@@H]2CCCN2C1=O [compound 249] (H-DCLGFMRKCIPDNDKCCRPNLVCSRTHKWCKY[Phe(4-I)]F-NH2; disulfide 2-17, 9-23, 16-30) | 7.78 | 90 | 60 | – | – | – | – |
| CC[C@H](C)[C@@H]1NC(=O)[C@@H]2CSSC[C@@H]3NC(=O)[C@H](C(C)C)NC(=O)[C@H](CC(C)C)NC(=O)[C@H](CC(N)=O)NC(=O)[C@@H]4CCCN4C(=O)[C@H](CCCNC(=N)N)NC(=O)[C@H](CSSC[C@H](NC(=O)[C@@H](N)CC(=O)O)C(=O)N[C@@H](CC(C)C)C(=O)NCC(=O)N[C@@H](Cc4ccccc4)C(=O)N[C@@H](CCSC)C(=O)N[C@@H](CCCNC(=N)N)C(=O)N[C@@H](CCCCN)C(=O)N2)NC(=O)[C@H](CSSC[C@@H](C(=O)N[C@@H](CCCCN)C(=O)N[C@@H](Cc2ccc(O)cc2)C(=O)N[C@@H](Cc2cn(C)c4ccccc24)C(=O)N[C@@H](Cc2ccccc2)C(N)=O)NC(=O)[C@H](Cc2c[nH]c4ccccc24)NC(=O)[C@H](CCCCN)NC(=O)[C@H](Cc2c[nH]cn2)NC(=O)[C@H]([C@@H](C)O)NC(=O)[C@H](CCCNC(=N)N)NC(=O)[C@H](CO)NC3=O)NC(=O)[C@H](CCCCN)NC(=O)[C@H](CC(=O)O)NC(=O)[C@H](CC(N)=O)NC(=O)[C@H](CC(=O)O)NC(=O)[C@@H]2CCCN2C1=O [compound 250] (H-DCLGFMRKCIPDNDKCCRPNLVCSRTHKWCKY[Trp(1-Me)]F-NH2; disulfide 2-17, 9-23, 16-30) | 5.35 | 90 | 70 | – | – | – | – |
| CC[C@H](C)[C@@H]1NC(=O)[C@@H]2CSSC[C@@H]3NC(=O)[C@H](C(C)C)NC(=O)[C@H](CC(C)C)NC(=O)[C@H](CC(N)=O)NC(=O)[C@@H]4CCCN4C(=O)[C@H](CCCNC(=N)N)NC(=O)[C@H](CSSC[C@H](NC(=O)[C@@H](N)CC(=O)O)C(=O)N[C@@H](CC(C)C)C(=O)NCC(=O)N[C@@H](Cc4ccccc4)C(=O)N[C@@H](CCSC)C(=O)N[C@@H](CCCNC(=N)N)C(=O)N[C@@H](CCCCN)C(=O)N2)NC(=O)[C@H](CSSC[C@@H](C(=O)N[C@@H](CCCCN)C(=O)N[C@@H](Cc2cccc4ccccc24)C(=O)N[C@H](C(=O)N[C@@H](Cc2ccccc2)C(N)=O)C(C)C)NC(=O)[C@H](Cc2c[nH]c4ccccc24)NC(=O)[C@H](CCCNC(=N)N)NC(=O)[C@H](Cc2c[nH]cn2)NC(=O)[C@H]([C@@H](C)O)NC(=O)[C@H](CCCNC(=N)N)NC(=O)[C@H](CO)NC3=O)NC(=O)[C@H](CCCCN)NC(=O)[C@H](CC(=O)O)NC(=O)[C@H](CC(N)=O)NC(=O)[C@H](CC(=O)O)NC(=O)[C@@H]2CCCN2C1=O [compound 251] (H-DCLGFMRKCIPDNDKCCRPNLVCSRTHRWCK[1Nal]VF-NH2; disulfide 2-17, 9-23, 16-30) | – | – | – | 2.56 | 5 | 2 | – |
| CC[C@H](C)[C@@H]1NC(=O)[C@@H]2CSSC[C@@H]3NC(=O)[C@H](C(C)C)NC(=O)[C@H](CC(C)C)NC(=O)[C@H](CC(N)=O)NC(=O)[C@@H]4CCCN4C(=O)[C@H](CCCNC(=N)N)NC(=O)[C@H](CSSC[C@H](NC(=O)[C@@H](N)CC(=O)O)C(=O)N[C@@H](CC(C)C)C(=O)NCC(=O)N[C@@H](C)C(=O)N[C@@H](CCSC)C(=O)N[C@@H](CCCNC(=N)N)C(=O)N[C@@H](CCCCN)C(=O)N2)NC(=O)[C@H](CSSC[C@@H](C(=O)N[C@@H](CCCCN)C(=O)N[C@@H](Cc2ccc(O)cc2)C(=O)N[C@@H](Cc2c[nH]c4ccccc24)C(=O)N[C@@H](Cc2ccccc2)C(N)=O)NC(=O)[C@H](Cc2c[nH]c4ccccc24)NC(=O)[C@H](CCCCN)NC(=O)[C@H](Cc2c[nH]cn2)NC(=O)[C@H]([C@@H](C)O)NC(=O)[C@H](CCCNC(=N)N)NC(=O)[C@H](CO)NC3=O)NC(=O)[C@H](CCCCN)NC(=O)[C@H](CC(=O)O)NC(=O)[C@H](CC(N)=O)NC(=O)[C@H](CC(=O)O)NC(=O)[C@@H]2CCCN2C1=O [compound 252] (H-DCLGAMRKCIPDNDKCCRPNLVCSRTHKWCKYWF-NH2; disulfide 2-17, 9-23, 16-30) | – | – | – | 5 | 230 | 400 | – |
| CC[C@H](C)[C@@H]1NC(=O)[C@@H]2CSSC[C@@H]3NC(=O)[C@H](C(C)C)NC(=O)[C@H](CC(C)C)NC(=O)[C@H](CC(N)=O)NC(=O)[C@@H]4CCCN4C(=O)[C@H](CCCNC(=N)N)NC(=O)[C@H](CSSC[C@H](NC(=O)[C@@H](N)CC(=O)O)C(=O)N[C@@H](CC(C)C)C(=O)NCC(=O)N[C@@H](C)C(=O)N[C@@H](CCSC)C(=O)N[C@@H](CCCNC(=N)N)C(=O)N[C@@H](CCCCN)C(=O)N2)NC(=O)[C@H](CSSC[C@@H](C(=O)N[C@@H](CCCCN)C(=O)N[C@@H](Cc2c[nH]c4ccccc24)C(=O)N[C@H](C(=O)N[C@@H](Cc2ccccc2)C(N)=O)C(C)C)NC(=O)[C@H](Cc2c[nH]c4ccccc24)NC(=O)[C@H](CCCCN)NC(=O)[C@H](Cc2c[nH]cn2)NC(=O)[C@H]([C@@H](C)O)NC(=O)[C@H](CCCNC(=N)N)NC(=O)[C@H](CO)NC3=O)NC(=O)[C@H](CCCCN)NC(=O)[C@H](CC(=O)O)NC(=O)[C@H](CC(N)=O)NC(=O)[C@H](CC(=O)O)NC(=O)[C@@H]2CCCN2C1=O [compound 253] (H-DCLGAMRKCIPDNDKCCRPNLVCSRTHKWCKWVF-NH2; disulfide 2-17, 9-23, 16-30) | – | – | – | 5 | 270 | 530 | – |
| CC[C@H](C)[C@@H]1NC(=O)[C@@H]2CSSC[C@@H]3NC(=O)[C@H](C(C)C)NC(=O)[C@H](CC(C)C)NC(=O)[C@H](CC(N)=O)NC(=O)[C@@H]4CCCN4C(=O)[C@H](CCCNC(=N)N)NC(=O)[C@H](CSSC[C@H](NC(=O)[C@@H](N)CC(=O)O)C(=O)N[C@@H](CC(C)C)C(=O)NCC(=O)N[C@@H](C)C(=O)N[C@@H](CCSC)C(=O)N[C@@H](CCCNC(=N)N)C(=O)N[C@@H](CCCCN)C(=O)N2)NC(=O)[C@H](CSSC[C@@H](C(=O)N[C@@H](CCCCN)C(=O)N[C@@H](Cc2cccc4ccccc24)C(=O)N[C@H](C(=O)N[C@@H](Cc2ccccc2)C(N)=O)C(C)C)NC(=O)[C@H](Cc2c[nH]c4ccccc24)NC(=O)[C@H](CCCCN)NC(=O)[C@H](Cc2c[nH]cn2)NC(=O)[C@H]([C@@H](C)O)NC(=O)[C@H](CCCNC(=N)N)NC(=O)[C@H](CO)NC3=O)NC(=O)[C@H](CCCCN)NC(=O)[C@H](CC(=O)O)NC(=O)[C@H](CC(N)=O)NC(=O)[C@H](CC(=O)O)NC(=O)[C@@H]2CCCN2C1=O [compound 254] (H-DCLGAMRKCIPDNDKCCRPNLVCSRTHKWCK[1Nal]VF-NH2; disulfide 2-17, 9-23, 16-30) | – | – | – | 5 | 60 | 200 | – |
| CC[C@H](C)[C@@H]1NC(=O)[C@@H]2CSSC[C@@H]3NC(=O)[C@H](C(C)C)NC(=O)[C@H](CC(C)C)NC(=O)[C@H](CC(N)=O)NC(=O)[C@@H]4CCCN4C(=O)[C@H](CCCNC(=N)N)NC(=O)[C@H](CSSC[C@H](NC(=O)[C@@H](N)CC(=O)O)C(=O)N[C@@H](CC(C)C)C(=O)NCC(=O)N[C@@H](C)C(=O)N[C@@H](CCSC)C(=O)N[C@@H](CCCNC(=N)N)C(=O)N[C@@H](CCCCN)C(=O)N2)NC(=O)[C@H](CSSC[C@@H](C(=O)N[C@@H](CCCCN)C(=O)N[C@@H](Cc2ccc(O)cc2)C(=O)N[C@H](C(=O)N[C@@H](Cc2ccccc2)C(N)=O)C(C)C)NC(=O)[C@H](Cc2c[nH]c4ccccc24)NC(=O)[C@H](CCCCN)NC(=O)[C@H](Cc2cnc[nH]2)NC(=O)[C@H](CC(C)C)NC(=O)[C@H](CCCNC(=N)N)NC(=O)[C@H](CO)NC3=O)NC(=O)[C@H](CCCCN)NC(=O)[C@H](CC(=O)O)NC(=O)[C@H](CC(N)=O)NC(=O)[C@H](CC(=O)O)NC(=O)[C@@H]2CCCN2C1=O [compound 255] (H-DCLGAMRKCIPDNDKCCRPNLVCSRLHKWCKYVF-NH2; disulfide 2-17, 9-23, 16-30) | – | – | – | – | 280 | 680 | 5 |
| CC[C@H](C)[C@@H]1NC(=O)[C@@H]2CSSC[C@@H]3NC(=O)[C@H](C(C)C)NC(=O)[C@H](CC(C)C)NC(=O)[C@H](CC(N)=O)NC(=O)[C@@H]4CCCN4C(=O)[C@H](CCCNC(=N)N)NC(=O)[C@H](CSSC[C@H](NC(=O)[C@@H](N)CC(=O)O)C(=O)N[C@@H](CC(C)C)C(=O)NCC(=O)N[C@@H](C)C(=O)N[C@@H](Cc4cccc5ccccc45)C(=O)N[C@@H](CCCNC(=N)N)C(=O)N[C@@H](CCCCN)C(=O)N2)NC(=O)[C@H](CSSC[C@@H](C(=O)N[C@@H](CCCCN)C(=O)N[C@@H](Cc2ccc(O)cc2)C(=O)N[C@H](C(=O)N[C@@H](Cc2ccccc2)C(N)=O)C(C)C)NC(=O)[C@H](Cc2c[nH]c4ccccc24)NC(=O)[C@H](CCCCN)NC(=O)[C@H](Cc2cnc[nH]2)NC(=O)[C@H]([C@@H](C)O)NC(=O)[C@H](CCCNC(=N)N)NC(=O)[C@H](CO)NC3=O)NC(=O)[C@H](CCCCN)NC(=O)[C@H](CC(=O)O)NC(=O)[C@H](CC(N)=O)NC(=O)[C@H](CC(=O)O)NC(=O)[C@@H]2CCCN2C1=O [compound 256] | – | – | – | 5 | 100 | 60 | – |
